Data as given in ChEMBL document CHEMBL1159160, “L-162,389: a potent orally active angiotensin II receptor antagonist with balanced affinity to both AT1 and AT2 receptor subtypes” (Bioorg Med Chem Lett, 1996).

Legend:
[1] = target: T1, Type-2 angiotensin II receptor (Rattus norvegicus, UniProt P35351); experiment: Compound was evaluated for inhibition of 125I[Sar1,Ile8] aII binding to rat midbrain membrane preparation Angiotensin II receptor, type 2; type: tissue-based
T1 sequence (P35351 whole entry): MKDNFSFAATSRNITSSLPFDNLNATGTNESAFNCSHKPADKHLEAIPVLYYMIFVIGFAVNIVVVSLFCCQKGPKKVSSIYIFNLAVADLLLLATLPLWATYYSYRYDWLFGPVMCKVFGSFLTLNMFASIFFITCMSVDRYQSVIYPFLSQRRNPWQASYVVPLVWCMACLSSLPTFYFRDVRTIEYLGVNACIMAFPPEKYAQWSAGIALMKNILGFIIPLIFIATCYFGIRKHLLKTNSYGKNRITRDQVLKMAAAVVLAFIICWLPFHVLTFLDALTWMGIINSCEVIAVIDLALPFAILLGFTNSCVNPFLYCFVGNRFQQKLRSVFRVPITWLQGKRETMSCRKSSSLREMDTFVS

[2] = target: T2, Type-1 angiotensin II receptor (Oryctolagus cuniculus, UniProt P34976); experiment: Compound was evaluated for inhibition of 125I[Sar1,Ile8] all binding to rabbit aorta Angiotensin II receptor, type 1; type: tissue-based
T2 sequence (P34976 whole entry): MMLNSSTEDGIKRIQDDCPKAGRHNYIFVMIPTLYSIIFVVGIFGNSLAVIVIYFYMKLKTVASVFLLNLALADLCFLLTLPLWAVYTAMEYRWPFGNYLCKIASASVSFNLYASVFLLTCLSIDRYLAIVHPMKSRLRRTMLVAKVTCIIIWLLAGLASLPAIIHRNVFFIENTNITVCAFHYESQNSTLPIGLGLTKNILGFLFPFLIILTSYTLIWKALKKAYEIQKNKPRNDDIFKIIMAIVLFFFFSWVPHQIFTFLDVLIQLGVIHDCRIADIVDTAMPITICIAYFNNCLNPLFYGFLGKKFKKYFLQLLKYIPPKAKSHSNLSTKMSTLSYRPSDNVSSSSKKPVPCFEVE

Compound	IC50 [1]	IC50 [2]
CCCCOC(=O)NS(=O)(=O)c1ccc(CC)cc1-c1ccc(Cn2c(CC)nc3c(C)cc(C)nc32)cc1	37 nM	1.4 nM
CCCCOC(=O)NS(=O)(=O)c1ccc(CCC)cc1-c1ccc(Cn2c(CC)nc3c(C)cc(C)nc32)cc1	3.8 nM	2.1 nM
CCCCOC(=O)NS(=O)(=O)c1ccc(C)cc1-c1ccc(Cn2c(CC)nc3c(C)cc(C)nc32)cc1	87 nM	0.2 nM
CCCCOC(=O)NS(=O)(=O)c1ccccc1-c1ccc(Cn2c(CC)nc3c(C)cc(C)nc32)cc1	95 nM	0.2 nM
